The inhibition is how much of the control response was suppressed.

Results on ten molecules are retold here after US4450269A, “Mono-5-substituted-3-chloro-4H-1,2,6-thiadiazin-4-one antifungal agents” (FMC Corporation, priority 1980, dated 1984).

Structures are written as SMILES.

For one assay, the system named is Pythium ultimum. Kind of assay: Mycelial growth test. Type of assay: cell-based. The settings on record: Globisporangium ultimum, 72 h, PU, read-out: Percent Fungus Growth Inhibition.
The subject of another assay is Fusarium solani. Kind of assay: Soil treatment, bean root rot. Type of assay: in vivo. Particulars: Fusarium solani, soil, 336 h; 150 ppm suspension, 3.8 mg active per pot; read-out: Percent Disease Control, seed/soil, bean root rot. An outline of the steps:
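Soil around bean seedlings was drenched with a 150 ppm suspension, giving 3.8 mg active per pot. Twenty-four hours later the soil was inoculated with minced Fusarium solani mycelium. Plants were kept in a greenhouse, and percent control of root rot damage was scored after fourteen days.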

The test system of a further assay is Cercospora beticola. Kind of assay: whole plant or invertebrate. Particulars: in Beta vulgaris, foliar, 24 h, read-out: Percent Disease Control, curative, sugar beet leaf spot.

With `O=c1c(Cl)nsnc1Oc1cccc(C(F)(F)F)c1` [Compound 44, 3-chloro-5-[(3-trifluoromethyl)phenoxy]-4H--1,2,6-thiadiazin-4-one], in the assay on Pythium ultimum, the inhibition at 5 ppm was determined as 100%, the inhibition at 10 ppm was determined as 100%, the inhibition at 20 ppm was 100% and the inhibition at 40 ppm was 100%. In the assay on Fusarium solani, the pest or weed control at 150 ppm, 3.8 mg/pot came out at 90%. In addition, the pest or weed control at 150 ppm in the assay on Cercospora beticola came to 0%.
As to `O=C(O)Cc1ccccc1Oc1nsnc(Cl)c1=O` [Compound 45, 3-(2-carboxymethylphenoxy)-5-chloro-4H--1,2,6-thiadiazin-4-one], in the assay on Pythium ultimum, the inhibition at 5 ppm was determined as 0%, the inhibition at 10 ppm is 42%, the inhibition at 20 ppm was found to be 69% and the inhibition at 40 ppm is 100%. In addition, in the assay with Fusarium solani, the pest or weed control at 150 ppm, 3.8 mg/pot was found to be 90%. The pest or weed control at 150 ppm with Cercospora beticola amounted to 90%.
As for `CC(=O)c1ccc(Oc2nsnc(Cl)c2=O)cc1` [Compound 47, 3-(4-acetylphenoxy)-5-chloro-4H--1,2,6-thiadiazin-4-one], in the assay with Pythium ultimum, the inhibition at 5 ppm was 71%, the inhibition at 10 ppm stood at 100%, the inhibition at 20 ppm was determined as 100% and the inhibition at 40 ppm amounted to 100%. In addition, the pest or weed control at 150 ppm, 3.8 mg/pot in the assay on Fusarium solani worked out at 95%. The pest or weed control at 150 ppm in the assay on Cercospora beticola is 90%.
Regarding `CC(=O)c1ccccc1Oc1nsnc(Cl)c1=O` [Compound 49, 3-(2-acetylphenoxy)-5-chloro-4H--1,2,6-thiadiazin-4-one], in the assay on Pythium ultimum, the inhibition at 5 ppm is 47%, the inhibition at 10 ppm was determined as 87%, the inhibition at 20 ppm was 96% and the inhibition at 40 ppm turned out to be 100%. Further, the pest or weed control at 150 ppm, 3.8 mg/pot with Fusarium solani is 0%. In addition, the pest or weed control at 150 ppm with Cercospora beticola was found to be 0%.
Turning to `O=C(O)c1ccc(Oc2nsnc(Cl)c2=O)cc1` [Compound 50, 3-(4-carboxyphenoxy)-5-chloro-4H--1,2,6-thiadiazin-4-one], in the assay with Pythium ultimum, the inhibition at 5 ppm was found to be 20%, the inhibition at 10 ppm was 0%, the inhibition at 20 ppm worked out at 47% and the inhibition at 40 ppm came out at 100%. Besides, the pest or weed control at 150 ppm, 3.8 mg/pot in the assay with Fusarium solani is 0%. Moreover, the pest or weed control at 150 ppm with Cercospora beticola came to 50%.
On to `Cc1cc(Oc2nsnc(Cl)c2=O)ccc1Cl` [Compound 54, 3-chloro-5-(4-chloro-3-methylphenoxy)-4H--1,2,6-thiadiazin-4-one], for which, in the assay on Pythium ultimum, the inhibition at 5 ppm came to 42%, the inhibition at 10 ppm was 60%, the inhibition at 20 ppm was 71% and the inhibition at 40 ppm was 87%. Besides, the pest or weed control at 150 ppm, 3.8 mg/pot with Fusarium solani was 0%. In addition, the pest or weed control at 150 ppm in the assay with Cercospora beticola turned out to be 0%.
On to `Cc1cc(Cl)ccc1Oc1nsnc(Cl)c1=O` [Compound 55, 3-chloro-5-(4-chloro-2-methylphenoxy)-4H--1,2,6-thiadiazin-4-one], for which, in the assay with Pythium ultimum, the inhibition at 5 ppm is 42%, the inhibition at 10 ppm amounted to 64%, the inhibition at 20 ppm worked out at 33% and the inhibition at 40 ppm was 47%. Besides, the pest or weed control at 150 ppm, 3.8 mg/pot with Fusarium solani was determined as 0%. Further, the pest or weed control at 150 ppm in the assay with Cercospora beticola amounted to 95%.
Turning to `Cc1ccc(Oc2nsnc(Cl)c2=O)c(Br)c1` [Compound 57, 3-[(2-bromo-4-methyl)-phenoxy]-5-chloro-4H--1,2,6-thiadiazin-4-one], in the assay with Pythium ultimum, the inhibition at 5 ppm is 42%, the inhibition at 10 ppm turned out to be 60%, the inhibition at 20 ppm is 100% and the inhibition at 40 ppm worked out at 100%. The pest or weed control at 150 ppm, 3.8 mg/pot in the assay on Fusarium solani worked out at 0%. For the same molecule, the pest or weed control at 150 ppm in the assay with Cercospora beticola stood at 90%.
For the molecule `Cc1cc(Cl)c(Oc2nsnc(Cl)c2=O)cc1C` [Compound 58, 3-chloro-5-[(2-chloro-4,5-dimethyl)phenoxy]-4H--1,2,6-thiadiazin-4-one], in the assay on Pythium ultimum, the inhibition at 5 ppm was found to be 13%, the inhibition at 10 ppm was determined as 24%, the inhibition at 20 ppm came out at 0% and the inhibition at 40 ppm was found to be 13%. Further, the pest or weed control at 150 ppm, 3.8 mg/pot with Fusarium solani was determined as 0%. Also, the pest or weed control at 150 ppm in the assay on Cercospora beticola was 0%.
Turning to `Cc1cc(Oc2nsnc(Cl)c2=O)cc(C)c1Cl` [Compound 59, 3-chloro-5-[(4-chloro-3,5-dimethyl)phenoxy]-4H--1,2,6-thiadiazin-4-one], in the assay with Pythium ultimum, the inhibition at 5 ppm stood at 0%, the inhibition at 10 ppm came to 0%, the inhibition at 20 ppm was 0% and the inhibition at 40 ppm was determined as 29%. In the assay with Fusarium solani, the pest or weed control at 150 ppm, 3.8 mg/pot turned out to be 0%. Besides, the pest or weed control at 150 ppm with Cercospora beticola worked out at 0%.
